{"source": "paper PMC12195967", "about": "“Cobalt(II) Complexes of 4′–Nitro–Fenamic Acid: Characterization and Biological Evaluation” (Molecules, 2025)", "key": {"[1]": {"biological_target": "T1, human serum albumin (HSA) (Homo sapiens, UniProt P02768)", "T1 construct": "purchased Sigma-Aldrich Co", "T1 sequence (P02768 25-609)": "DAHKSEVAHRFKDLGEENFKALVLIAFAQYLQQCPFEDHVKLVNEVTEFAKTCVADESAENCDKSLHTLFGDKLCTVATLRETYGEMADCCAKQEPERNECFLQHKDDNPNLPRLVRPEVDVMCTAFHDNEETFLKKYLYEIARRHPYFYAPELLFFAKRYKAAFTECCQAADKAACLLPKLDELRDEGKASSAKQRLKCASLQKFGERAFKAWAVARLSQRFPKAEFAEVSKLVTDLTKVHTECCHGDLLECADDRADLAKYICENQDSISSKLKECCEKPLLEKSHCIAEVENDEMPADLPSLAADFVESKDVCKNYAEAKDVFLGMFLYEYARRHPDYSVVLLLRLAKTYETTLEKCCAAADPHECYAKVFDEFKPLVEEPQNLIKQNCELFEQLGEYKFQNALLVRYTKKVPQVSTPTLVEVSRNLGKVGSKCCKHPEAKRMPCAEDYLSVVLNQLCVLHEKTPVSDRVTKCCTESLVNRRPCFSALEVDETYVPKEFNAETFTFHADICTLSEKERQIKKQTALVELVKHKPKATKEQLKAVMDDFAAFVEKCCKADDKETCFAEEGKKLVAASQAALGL", "assay": "Albumin tryptophan fluorescence quenching", "assay_type": "binding", "conditions": "for relative fluorescence intensity of HSA (I/Io, %), final: % of the initial HSA fluorescence remaining, λem 341 nm; for K(HSA): Scatchard equation, no site marker; for Kq (HSA): τ0 = 10^−8 s", "procedure": "(§1) The interaction between complexes 1–4 and albumins was investigated by recording the tryptophan fluorescence emission spectra and monitoring the quenching induced by incremental amounts of the complexes. For these experiments, albumins ([…]) were prepared in buffer solution (150 mM NaCl and 15 mM trisodium citrate at pH = 7) and their fluorescence emission spectra were recorded in the range 300—500 nm for λexcitation = 295 nm. Upon incremental addition of the compounds (Figures S13 and S14), a significant decrease in the intensity of the corresponding emission band at λmax,emission = 341 nm and 345 nm for HSA and BSA, respectively, was observed (up to 87% of the initial fluorescence, Figure 8). The observed fluorescence emission quenching might be a result of a change in the spatial conformation of the protein and specifically of rearrangement of its secondary structure, as a result of SA–complex interactions. To quantify this interaction, the fluorescence emission spectra (λexcitation = 295 nm) of the compounds were subtracted from the corresponding overall spectra. The potential influence of the inner-filter effect on the measurements was evaluated with Equation (S6) and was found negligible to affect the measurements.\n(§2) The Stern–Volmer constant (KSV), the SA-quenching constant (Kq) and the SA-binding constant (K) of the compounds were determined using the Stern–Volmer and Scatchard equations (Equations (S2), (S3) and (S7)) and corresponding plots (Figures S15–S18). In these calculations, the fluorescence lifetime of tryptophan in SAs (το) was assumed to be 10^−8 s. […]\n(§3) S5 Albumin−binding studies\n(§4) S5.1 Interaction with albumins\n(§5) In order to study the interaction of the compounds with the albumins, the compound was initially dissolved in DMSO (1 mM). Mixing of such solutions with the aqueous buffer solutions of the albumins used in the studies never exceeded 5% DMSO (v/v) in the final solution, which was needed due to low aqueous solubility of most […]\n(§6) With the purpose to investigate if the compound can bind to carrier protein like serum albumins, albumin binding studies were carried out by tryptophan fluorescence quenching experiments using BSA or HSA (3 μM) in buffer (containing 15 mM trisodium citrate and 150 mM NaCl at pH 7.0). The quenching of the emission intensity of tryptophan residues of BSA at 344 nm or HSA at 342 nm was monitored using the compound as quenchers with increasing concentration. The fluorescence emission spectra of the compound were also recorded with λexcitation = 295 nm; in case that an additional emission band appeared the albumin−fluorescence emission spectra were corrected by subtracting the spectra of the compound. The influence of the inner−filter effect on the measurements was evaluated by the equation [9] :\n(§7) Icorr = Imeas × 10 2 × 10 2 (equation S6) where Icorr = corrected intensity, Imeas = the measured intensity, c = the concentration of the quencher, d = the cuvette (1 cm), ε(λexc) and ε(λem) = the ε of the quencher at the excitation and the emission wavelength, respectively, as calculated from the UV−vis spectra of the […]\n(§8) The Stern−Volmer and Scatchard graphs are used to study the interaction of the compound with the albumins. According to the Stern−Volmer quenching equation (equation S2), where Io = initial tryptophan fluorescence intensity of albumin, I = tryptophan fluorescence intensity of BSA after the addition of the quencher, Kq = quenching constant, KSV = Stern−Volmer constant, τo = average lifetime of albumin without the quencher, and, taking as fluorescence lifetime (τo) of tryptophan in albumin at around 10−8 s, KSV (in M−1) can be obtained by the slope of the diagram Io/I versus [compound] (Stern−Volmer plots), […]\n(§9) and subsequently the quenching constant (Kq, in M−1s−1) may be calculated from equation From the Scatchard equation:\n(§10) [Q] = nK − K Io (equation S7) where n is the number of binding sites per albumin and K is the albumin−binding constant […]"}, "[2]": {"biological_target": "T2, bovine serum albumin (BSA) (Bos taurus, UniProt P02769)", "T2 construct": "purchased Sigma-Aldrich Co", "T2 sequence (P02769 25-607)": "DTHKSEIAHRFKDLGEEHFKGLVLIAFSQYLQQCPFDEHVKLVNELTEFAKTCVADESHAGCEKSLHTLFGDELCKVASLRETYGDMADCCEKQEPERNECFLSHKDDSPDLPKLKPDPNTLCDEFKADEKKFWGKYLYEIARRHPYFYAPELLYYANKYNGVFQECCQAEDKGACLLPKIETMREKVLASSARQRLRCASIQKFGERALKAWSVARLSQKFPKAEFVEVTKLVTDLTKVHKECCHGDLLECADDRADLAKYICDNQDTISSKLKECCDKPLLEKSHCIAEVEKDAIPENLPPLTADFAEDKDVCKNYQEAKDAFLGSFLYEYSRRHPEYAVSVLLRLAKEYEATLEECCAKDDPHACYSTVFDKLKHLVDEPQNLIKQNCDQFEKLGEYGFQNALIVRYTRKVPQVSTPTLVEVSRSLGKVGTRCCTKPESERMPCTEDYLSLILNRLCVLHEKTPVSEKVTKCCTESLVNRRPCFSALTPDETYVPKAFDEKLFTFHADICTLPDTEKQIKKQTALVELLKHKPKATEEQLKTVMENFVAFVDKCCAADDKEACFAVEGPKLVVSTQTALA", "assay": "Albumin tryptophan fluorescence quenching", "assay_type": "binding", "conditions": "for relative fluorescence intensity of BSA (I/Io, %), final: % of the initial BSA fluorescence remaining, λem 345 nm; for K(BSA): Scatchard equation, no site marker; for Kq (BSA): τ0 = 10^−8 s", "procedure": "as §1, §2, §3, §4, §5, §6, §7, §8, §9, §10"}, "CT DNA": {"test_system": "CT DNA", "assay": "Interaction with CT DNA by UV-vis spectroscopy", "assay_type": "binding, calf", "conditions": "for percentage of the observed hyper-/hypochromism (ΔA/A0, %) / blue-/red-shift in λmax (Δλ, nm): upon addition of CT DNA; for DNA-binding constant Kb: Wolfe–Shimer equation", "procedure": "UV-vis spectroscopy was employed to determine the interaction mode of the compounds (4′–NO2–fenH and its complexes 1–4) with DNA and calculate the DNA-binding constant (Kb). For this reason, the UV-vis spectra of the compounds (2 × 10^−5–10^−4 Μ) were recorded in the presence of incremental additions of CT DNA solution (Figure S4), and the changes (in absorbance and wavelength) of the initial bands were monitored. […] However, a definite conclusion cannot be reached from such spectroscopic data, but the interaction mode could be further corroborated by viscosity measurements.\nThe Kb values of the compounds were calculated with the Wolfe–Shimer equation (Equation (S1)) and the corresponding plots of [DNA]/(εA–εF) vs. [DNA] (Figure S5).\nS3 Binding studies with CT DNA\nIn order to study the interaction of the compounds with DNA, the compound was initially dissolved in DMSO (1 mM). Mixing of such solutions with the aqueous buffer solutions of DNA used in the studies never exceeded 5% DMSO (v/v) in the final solution, which was needed due to low aqueous solubility of most compounds. In all experiments, the effect of DMSO on the data has been taken into consideration and the appropriate corrections have been performed. The interaction of the compound with CT DNA was monitored by UV−vis spectroscopy, and viscosity measurements, and via competitive studies with EB by fluorescence emission spectroscopy.\nS3.1 Binding study with CT DNA by UV−vis spectroscopy\nThe interaction of the compound with CT DNA has been studied by UV−vis spectroscopy in order to investigate the possible binding mode to CT DNA and to calculate the DNA−binding constant (Kb). of the compounds Kb (in M−1) was determined with the Wolfe−Shimer equation (equation S1) and the plots [DNA]/(εA−εf) versus [DNA] using the UV−vis spectra of the compound (25–100 μM) recorded for a constant concentration with increasing amounts of CT DNA for diverse [compound]/[DNA] mixing ratios (= r).\nAccording to the Wolfe−Shimer equation:\n[DNA] = [DNA] + 1 (equation S1)\n(εA−εf) (εb−εf) Kb(εb−εf) where [DNA] is the concentration of DNA in base pairs, εA = Aobsd/[compound], εf = the extinction coefficient for the free compound and εb = the extinction coefficient for the compound in the fully bound form. Kb is given by the ratio of slope to the y intercept in plots [DNA]/(εA−εf) versus [DNA]. […]"}, "[3]": {"conditions": "UV band at λmax 391–421 nm, + hyperchromism, − hypochromism"}, "[4]": {"conditions": "UV band at λmax 391–421 nm, + red-shift, − blue-shift"}}, "data": [{"smiles": "O=C(O)c1ccccc1Nc1ccc([N+](=O)[O-])cc1", "note": "[4′–NO2–fenH, 4′–nitrofenamic acid]", "values": [{"measurement": "relative fluorescence intensity of HSA (I/Io, %), final", "setting": "[1]", "value": 54.3, "unit": "%"}, {"measurement": "K(HSA)", "setting": "[1]", "value": "3.82 (±0.09) × 10^5 M^−1"}, {"measurement": "Kq (HSA)", "setting": "[1]", "value": "9.54 (±1.09) × 10^12 M^−1s^−1"}, {"measurement": "relative fluorescence intensity of BSA (I/Io, %), final", "setting": "[2]", "value": 45.0, "unit": "%"}, {"measurement": "K(BSA)", "setting": "[2]", "value": "3.31 (±0.14) × 10^5 M^−1"}, {"measurement": "Kq (BSA)", "setting": "[2]", "value": "1.18 (±0.09) × 10^13 M^−1s^−1"}, {"measurement": "percentage of the observed hyper-/hypochromism (ΔA/A0, %)", "setting": "CT DNA; [3]", "value": "−12", "unit": "%"}, {"measurement": "blue-/red-shift in λmax (Δλ, nm)", "setting": "CT DNA; [4]", "value": "+20 nm"}, {"measurement": "DNA-binding constant Kb", "setting": "CT DNA; listed as 4′–NO2–fenamic acid", "value": "1.62e+06", "unit": "M⁻¹"}]}, {"smiles": "CO.CO.CO.CO.O=C([O-])c1ccccc1Nc1ccc([N+](=O)[O-])cc1.O=C([O-])c1ccccc1Nc1ccc([N+](=O)[O-])cc1.[Co+2]", "note": "[Complex 1, [Co(4′–NO2–fen)2(MeOH)4]]", "values": [{"measurement": "relative fluorescence intensity of HSA (I/Io, %), final", "setting": "[1]", "value": 32.8, "unit": "%"}, {"measurement": "K(HSA)", "setting": "[1]", "value": "1.68 (±0.04) × 10^5 M^−1"}, {"measurement": "Kq (HSA)", "setting": "[1]", "value": "1.10 (±0.03) × 10^13 M^−1s^−1"}, {"measurement": "relative fluorescence intensity of BSA (I/Io, %), final", "setting": "[2]", "value": 45.6, "unit": "%"}, {"measurement": "K(BSA)", "setting": "[2]", "value": "1.68 (±0.07) × 10^5 M^−1"}, {"measurement": "Kq (BSA)", "setting": "[2]", "value": "9.51 (±0.06) × 10^12 M^−1s^−1"}, {"measurement": "percentage of the observed hyper-/hypochromism (ΔA/A0, %)", "setting": "CT DNA; [3]", "value": "−10", "unit": "%"}, {"measurement": "blue-/red-shift in λmax (Δλ, nm)", "setting": "CT DNA; [4]", "value": 0, "unit": "nm"}]}, {"smiles": "O=C([O-])c1ccccc1Nc1ccc([N+](=O)[O-])cc1.O=C([O-])c1ccccc1Nc1ccc([N+](=O)[O-])cc1.[Co+2].c1ccc(Nc2ccccn2)nc1", "note": "[Complex 2, [Co(4′–NO2–fen)2(bipyam)]]", "values": [{"measurement": "relative fluorescence intensity of HSA (I/Io, %), final", "setting": "[1]", "value": 21.1, "unit": "%"}, {"measurement": "K(HSA)", "setting": "[1]", "value": "2.56 (±0.10) × 10^5 M^−1"}, {"measurement": "Kq (HSA)", "setting": "[1]", "value": "1.91 (±0.06) × 10^13 M^−1s^−1"}, {"measurement": "relative fluorescence intensity of BSA (I/Io, %), final", "setting": "[2]", "value": 35.3, "unit": "%"}, {"measurement": "K(BSA)", "setting": "[2]", "value": "1.75 (±0.08) × 10^5 M^−1"}, {"measurement": "Kq (BSA)", "setting": "[2]", "value": "1.30 (±0.06) × 10^13 M^−1s^−1"}, {"measurement": "blue-/red-shift in λmax (Δλ, nm)", "setting": "CT DNA; UV band at λmax 321 nm", "value": "−0.5", "unit": "nm"}, {"measurement": "percentage of the observed hyper-/hypochromism (ΔA/A0, %)", "setting": "CT DNA; UV band at λmax 321 nm", "value": "+4%"}, {"measurement": "percentage of the observed hyper-/hypochromism (ΔA/A0, %)", "setting": "CT DNA; [3]", "value": "−10", "unit": "%"}, {"measurement": "blue-/red-shift in λmax (Δλ, nm)", "setting": "CT DNA; [4]", "value": 0, "unit": "nm"}]}, {"smiles": "O=C([O-])c1ccccc1Nc1ccc([N+](=O)[O-])cc1.O=C([O-])c1ccccc1Nc1ccc([N+](=O)[O-])cc1.[Co+2].c1cnc2c(c1)ccc1cccnc12", "note": "[Complex 3, [Co(4′–NO2–fen)2(phen)]]", "values": [{"measurement": "relative fluorescence intensity of HSA (I/Io, %), final", "setting": "[1]", "value": 22.7, "unit": "%"}, {"measurement": "K(HSA)", "setting": "[1]", "value": "1.93 (±0.09) × 10^5 M^−1"}, {"measurement": "Kq (HSA)", "setting": "[1]", "value": "1.87 (±0.04) × 10^13 M^−1s^−1"}, {"measurement": "relative fluorescence intensity of BSA (I/Io, %), final", "setting": "[2]", "value": 24.4, "unit": "%"}, {"measurement": "K(BSA)", "setting": "[2]", "value": "2.06 (±0.07) × 10^5 M^−1"}, {"measurement": "Kq (BSA)", "setting": "[2]", "value": "1.64 (±0.04) × 10^13 M^−1s^−1"}, {"measurement": "percentage of the observed hyper-/hypochromism (ΔA/A0, %)", "setting": "CT DNA; [3]", "value": "−2.5", "unit": "%"}, {"measurement": "blue-/red-shift in λmax (Δλ, nm)", "setting": "CT DNA; [4]", "value": "+0.5 nm"}]}, {"smiles": "C[O-].C[O-].Cc1ccc2ccc3ccc(C)nc3c2n1.Cc1ccc2ccc3ccc(C)nc3c2n1.O=C([O-])c1ccccc1Nc1ccc([N+](=O)[O-])cc1.O=C([O-])c1ccccc1Nc1ccc([N+](=O)[O-])cc1.[Co+2].[Co+2]", "note": "[Complex 4, [Co2(4′–NO2–fen)2(μ–CH3O)2(neoc)2]]", "values": [{"measurement": "relative fluorescence intensity of HSA (I/Io, %), final", "setting": "[1]", "value": 12.1, "unit": "%"}, {"measurement": "K(HSA)", "setting": "[1]", "value": "5.03 (±0.19) × 10^5 M^−1"}, {"measurement": "Kq (HSA)", "setting": "[1]", "value": "3.98 (±0.12) × 10^13 M^−1s^−1"}, {"measurement": "relative fluorescence intensity of BSA (I/Io, %), final", "setting": "[2]", "value": 19.2, "unit": "%"}, {"measurement": "K(BSA)", "setting": "[2]", "value": "2.74 (±0.10) × 10^5 M^−1"}, {"measurement": "Kq (BSA)", "setting": "[2]", "value": "2.19 (±0.05) × 10^13 M^−1s^−1"}, {"measurement": "percentage of the observed hyper-/hypochromism (ΔA/A0, %)", "setting": "CT DNA; [3]", "value": "−3", "unit": "%"}, {"measurement": "blue-/red-shift in λmax (Δλ, nm)", "setting": "CT DNA; [4]", "value": "−4.5", "unit": "nm"}, {"measurement": "DNA-binding constant Kb", "setting": "CT DNA", "value": "2.06e+06", "unit": "M⁻¹"}]}]}
